IC50 data for one molecule are collected here from ChEMBL document CHEMBL1909046, “DrugMatrix in vitro pharmacology data”.

Targets include Cytochrome P450 2C19 (Homo sapiens, UniProt P33261); Cytochrome P450 2C9 (Homo sapiens, UniProt P11712); Cytochrome P450 2D6 (Homo sapiens, UniProt P10635).
The target of another assay is T1, Cytochrome P450 1A2 (Homo sapiens, UniProt P05177).
T1 sequence (P05177 whole entry): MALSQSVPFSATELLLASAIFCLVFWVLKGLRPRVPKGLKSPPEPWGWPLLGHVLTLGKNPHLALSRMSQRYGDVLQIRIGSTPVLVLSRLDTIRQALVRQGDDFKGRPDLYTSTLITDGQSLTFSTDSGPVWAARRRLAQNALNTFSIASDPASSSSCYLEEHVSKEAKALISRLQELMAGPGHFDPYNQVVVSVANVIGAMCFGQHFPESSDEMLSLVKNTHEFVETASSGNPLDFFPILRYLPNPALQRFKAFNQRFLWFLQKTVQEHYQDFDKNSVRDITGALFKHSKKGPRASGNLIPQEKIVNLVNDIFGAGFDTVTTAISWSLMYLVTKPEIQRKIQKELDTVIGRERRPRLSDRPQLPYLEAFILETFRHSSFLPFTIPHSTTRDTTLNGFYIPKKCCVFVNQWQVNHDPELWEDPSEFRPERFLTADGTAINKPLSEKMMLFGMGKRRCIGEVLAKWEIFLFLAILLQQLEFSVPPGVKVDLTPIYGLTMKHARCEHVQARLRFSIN

In a further assay the target is T2, Androgen receptor (Rattus norvegicus, UniProt P15207).
T2 sequence (P15207 whole entry): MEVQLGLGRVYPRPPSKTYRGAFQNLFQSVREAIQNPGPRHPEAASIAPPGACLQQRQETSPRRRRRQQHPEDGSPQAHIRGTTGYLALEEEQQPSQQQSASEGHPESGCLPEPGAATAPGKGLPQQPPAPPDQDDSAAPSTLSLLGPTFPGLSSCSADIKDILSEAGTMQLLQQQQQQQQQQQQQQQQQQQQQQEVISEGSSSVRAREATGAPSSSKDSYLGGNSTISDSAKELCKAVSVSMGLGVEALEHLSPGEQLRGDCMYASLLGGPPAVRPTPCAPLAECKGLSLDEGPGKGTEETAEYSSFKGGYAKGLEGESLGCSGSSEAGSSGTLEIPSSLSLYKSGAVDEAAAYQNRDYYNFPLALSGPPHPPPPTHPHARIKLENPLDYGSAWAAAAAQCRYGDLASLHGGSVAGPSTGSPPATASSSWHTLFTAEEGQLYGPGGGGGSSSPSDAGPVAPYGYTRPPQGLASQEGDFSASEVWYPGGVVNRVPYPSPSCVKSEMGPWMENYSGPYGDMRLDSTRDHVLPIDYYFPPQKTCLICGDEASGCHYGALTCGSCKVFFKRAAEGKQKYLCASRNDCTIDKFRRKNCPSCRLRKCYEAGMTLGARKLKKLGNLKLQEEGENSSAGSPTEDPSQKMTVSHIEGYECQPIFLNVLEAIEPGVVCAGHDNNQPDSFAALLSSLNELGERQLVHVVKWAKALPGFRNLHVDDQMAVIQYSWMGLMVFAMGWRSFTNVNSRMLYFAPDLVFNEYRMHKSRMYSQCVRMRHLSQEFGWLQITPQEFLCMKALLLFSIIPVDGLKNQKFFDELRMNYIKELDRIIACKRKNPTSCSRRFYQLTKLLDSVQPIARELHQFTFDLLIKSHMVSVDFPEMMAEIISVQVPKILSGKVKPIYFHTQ

The structures appear in SMILES notation.
Further: in other assays of this panel Not Active means under 50% inhibition at 10 µM.

Cytochrome P450 2C9, sequence (P11712 whole entry): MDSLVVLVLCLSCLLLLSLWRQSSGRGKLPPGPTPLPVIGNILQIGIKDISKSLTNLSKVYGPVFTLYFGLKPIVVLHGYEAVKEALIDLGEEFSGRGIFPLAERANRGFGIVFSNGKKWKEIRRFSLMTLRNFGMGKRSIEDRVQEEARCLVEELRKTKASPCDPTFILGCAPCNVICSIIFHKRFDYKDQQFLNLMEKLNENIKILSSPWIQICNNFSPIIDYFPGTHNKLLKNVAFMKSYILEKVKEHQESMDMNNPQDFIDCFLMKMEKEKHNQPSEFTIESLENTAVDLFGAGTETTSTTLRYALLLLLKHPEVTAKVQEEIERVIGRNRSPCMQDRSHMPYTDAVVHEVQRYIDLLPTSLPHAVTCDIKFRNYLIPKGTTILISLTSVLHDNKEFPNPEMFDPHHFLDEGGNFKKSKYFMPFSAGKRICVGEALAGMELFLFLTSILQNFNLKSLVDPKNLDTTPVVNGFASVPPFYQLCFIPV
Cytochrome P450 2D6, sequence (P10635 whole entry): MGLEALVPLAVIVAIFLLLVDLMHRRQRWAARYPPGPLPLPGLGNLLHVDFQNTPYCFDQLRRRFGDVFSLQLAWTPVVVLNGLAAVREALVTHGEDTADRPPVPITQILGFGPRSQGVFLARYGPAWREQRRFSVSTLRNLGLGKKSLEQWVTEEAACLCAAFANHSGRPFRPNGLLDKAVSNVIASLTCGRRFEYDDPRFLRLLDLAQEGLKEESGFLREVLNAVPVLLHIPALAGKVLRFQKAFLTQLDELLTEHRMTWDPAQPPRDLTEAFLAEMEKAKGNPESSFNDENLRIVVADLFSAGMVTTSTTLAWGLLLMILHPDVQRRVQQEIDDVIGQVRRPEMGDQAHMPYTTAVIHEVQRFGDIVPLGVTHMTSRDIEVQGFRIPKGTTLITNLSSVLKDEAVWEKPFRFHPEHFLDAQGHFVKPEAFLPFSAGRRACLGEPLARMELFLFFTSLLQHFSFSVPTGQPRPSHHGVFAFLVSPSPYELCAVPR
Cytochrome P450 2C19, sequence (P33261 whole entry): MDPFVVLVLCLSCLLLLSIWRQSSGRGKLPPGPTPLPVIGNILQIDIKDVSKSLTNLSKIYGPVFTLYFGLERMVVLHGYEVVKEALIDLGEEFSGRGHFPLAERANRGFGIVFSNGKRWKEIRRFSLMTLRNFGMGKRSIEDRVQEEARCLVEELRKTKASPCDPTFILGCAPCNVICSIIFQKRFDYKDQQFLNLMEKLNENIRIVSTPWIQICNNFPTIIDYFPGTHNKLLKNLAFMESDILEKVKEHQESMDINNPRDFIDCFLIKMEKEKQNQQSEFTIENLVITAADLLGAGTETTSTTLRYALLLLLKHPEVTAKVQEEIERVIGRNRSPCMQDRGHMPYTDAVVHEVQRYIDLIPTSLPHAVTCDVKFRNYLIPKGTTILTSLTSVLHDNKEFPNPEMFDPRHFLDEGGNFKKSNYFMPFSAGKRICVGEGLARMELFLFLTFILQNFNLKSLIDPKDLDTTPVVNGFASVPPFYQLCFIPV

`C[S+]([O-])c1ccc(-c2nc(-c3ccncc3)c(-c3ccc(F)cc3)[nH]2)cc1` (stereo not given) [SB-203580]: the IC50 is 2000 nM on Cytochrome P450 1A2; 800 nM against Cytochrome P450 2C19; 1000 nM on Cytochrome P450 2C9; 2000 nM on Cytochrome P450 2D6; “Not Active” at Androgen receptor.
